Data reported in patent publication US10913736B2 (UNIVERSITY OF WASHINGTON, priority 2014, dated 2021).
pEC50, pIC50: −log10 of the molar value.

Assays:
MetRS (T. brucei) = MetRS (T. brucei) (Trypanosoma brucei brucei, UniProt Q38C91); assay: MetRS (T. brucei) ATP depletion assay using Kinase-Glo; type: biochemical
T. brucei = assay: Growth inhibition assay of T. brucei cell cultures (Alamar Blue, 48 h); type: cell-based; conditions: Trypanosoma brucei; read-out: B) T. brucei EC50

Sequence of MetRS (T. brucei) (Q38C91 entry or part of it): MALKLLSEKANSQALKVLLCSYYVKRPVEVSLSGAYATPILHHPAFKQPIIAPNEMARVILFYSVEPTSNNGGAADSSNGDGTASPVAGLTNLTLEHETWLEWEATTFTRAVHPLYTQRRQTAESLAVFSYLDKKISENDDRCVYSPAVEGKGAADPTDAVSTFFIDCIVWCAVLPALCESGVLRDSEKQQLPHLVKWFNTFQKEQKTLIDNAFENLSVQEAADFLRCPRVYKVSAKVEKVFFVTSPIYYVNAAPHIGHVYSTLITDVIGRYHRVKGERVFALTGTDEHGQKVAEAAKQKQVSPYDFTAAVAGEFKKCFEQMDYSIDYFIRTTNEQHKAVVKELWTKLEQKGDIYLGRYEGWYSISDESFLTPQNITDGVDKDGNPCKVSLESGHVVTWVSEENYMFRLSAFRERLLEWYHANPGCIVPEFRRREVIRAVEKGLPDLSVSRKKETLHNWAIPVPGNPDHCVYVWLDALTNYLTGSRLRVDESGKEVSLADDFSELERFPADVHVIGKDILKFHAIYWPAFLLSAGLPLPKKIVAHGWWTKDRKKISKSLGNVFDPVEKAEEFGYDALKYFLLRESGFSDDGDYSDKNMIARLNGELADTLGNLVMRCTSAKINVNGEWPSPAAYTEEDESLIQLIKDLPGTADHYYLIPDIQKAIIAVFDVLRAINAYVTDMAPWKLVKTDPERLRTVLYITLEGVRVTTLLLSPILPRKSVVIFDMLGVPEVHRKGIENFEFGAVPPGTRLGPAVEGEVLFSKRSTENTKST

Clc1cc(Cl)cc(CNC2CCN(c3nc4nc(Cl)ccc4[nH]3)CC2)c1 [Compound 1867, 1-(5-chloro-1H-imidazo[4,5-b]pyridin-2-yl)-N-(3,5-dichlorobenzyl)piperidin-4-amine]
pIC50 (MetRS (T. brucei)): 5.30 | pEC50 (T. brucei): < 4.70

Clc1cc(Cl)cc(CN2CCC[C@H](c3nc4nc(Cl)ccc4[nH]3)C2)c1 [Compound 1868, (S)-5-chloro-2-(1-(3,5-dichlorobenzyl)piperidin-3-yl)-1H-imidazo[4,5-b]pyridine]
pIC50 (MetRS (T. brucei)): 7.11 | pEC50 (T. brucei): 5.97

Clc1ccc(CN2CCC[C@H](c3nc4nc(Cl)ccc4[nH]3)C2)c(Cl)c1 [Compound 1869, (S)-5-chloro-2-(1-(2,4-dichlorobenzyl)piperidin-3-yl)-1H-imidazo[4,5-b]pyridine]
pIC50 (MetRS (T. brucei)): 7.28 | pEC50 (T. brucei): 5.77

COc1cc(CN2CCC[C@H](c3nc4nc(Cl)ccc4[nH]3)C2)cc(OC)c1 [Compound 1872, (S)-5-chloro-2-(1-(3,5-dimethoxybenzyl)piperidin-3-yl)-1H-imidazo[4,5-b]pyridine]
pIC50 (MetRS (T. brucei)): < 5.00 | pEC50 (T. brucei): 5.08

O=C(Cc1cc(Cl)cc(Cl)c1)NCc1nc2ccc(Br)cc2[nH]1 [Compound 1873, N-[(6-bromo-1H-1,3-benzodiazol-2-yl)methyl]-2-(3,5-dichlorophenyl)acetamide]
pIC50 (MetRS (T. brucei)): 7.01 | pEC50 (T. brucei): 5.26

O=C(Cc1ccc(Cl)cc1Cl)NCc1nc2ccc(Br)cc2[nH]1 [Compound 1874, N-[(6-bromo-1H-1,3-benzodiazol-2-yl)methyl]-2-(2,4-dichlorophenyl)acetamide]
pIC50 (MetRS (T. brucei)): 7.29 | pEC50 (T. brucei): 5.44

O=C(Cc1ccc(Cl)cc1Cl)NCc1nc2ccc(Cl)nc2[nH]1 [Compound 1876, N-({5-chloro-3H-imidazo[4,5-b]pyridin-2-yl}methyl)-2-(2,4-dichlorophenyl)acetamide]
pIC50 (MetRS (T. brucei)): 6.43 | pEC50 (T. brucei): < 4.70

O=C(Cc1cc(Cl)cc(Cl)c1)NCc1nc2ncc(Cl)cc2[nH]1 [Compound 1877, N-({6-chloro-1H-imidazo[4,5-b]pyridin-2-yl}methyl)-2-(3,5-dichlorophenyl)acetamide]
pIC50 (MetRS (T. brucei)): 6.72 | pEC50 (T. brucei): 5.06

O=C(Cc1ccc(Cl)cc1Cl)NCc1nc2ncc(Cl)cc2[nH]1 [Compound 1878, N-({6-chloro-1H-imidazo[4,5-b]pyridin-2-yl}methyl)-2-(2,4-dichlorophenyl)acetamide]
pIC50 (MetRS (T. brucei)): 6.71 | pEC50 (T. brucei): 5.12

O=C(Cc1cc(Cl)cc(Cl)c1)NCc1nc2cnc(Cl)cc2[nH]1 [Compound 1879, N-({6-chloro-1H-imidazo[4,5-c]pyridin-2-yl}methyl)-2-(3,5-dichlorophenyl)acetamide]
pIC50 (MetRS (T. brucei)): 6.38 | pEC50 (T. brucei): 4.95

O=C(Cc1ccc(Cl)cc1Cl)NCc1nc2cnc(Cl)cc2[nH]1 [Compound 1880, N-({6-chloro-1H-imidazo[4,5-c]pyridin-2-yl}methyl)-2-(2,4-dichlorophenyl)acetamide]
pIC50 (MetRS (T. brucei)): 6.67 | pEC50 (T. brucei): 5.08

COc1ccc(Oc2nc(O)nc(NCc3nc4ccc(F)nc4[nH]3)n2)c(Cl)c1 [Compound 1885, 4-(2-chloro-4-methoxyphenoxy)-6-[({5-fluoro-3H-imidazo[4,5-b]pyridin-2-yl}methyl)amino]-1,3,5-triazin-2-ol]
pIC50 (MetRS (T. brucei)): 5.82 | pEC50 (T. brucei): 5.23

CC(=O)N(Cc1cc(Cl)cc(Cl)c1)C1CCCN(c2nc3nc(F)ccc3[nH]2)C1 (stereo not drawn) [Compound 1887, N-(3,5-dichlorobenzyl)-N-(1-(5-fluoro-1H-imidazo[4,5-b]pyridin-2-yl)piperidin-3-yl)acetamide]
pIC50 (MetRS (T. brucei)): 5.18 | pEC50 (T. brucei): < 4.70

O=C(NCc1nc2ccc(Cl)nc2[nH]1)Nc1cc(Cl)cc(Cl)c1 [Compound 1890, 1-((5-chloro-1H-imidazo[4,5-b]pyridin-2-yl)methyl)-3-(3,5-dichlorophenyl)urea]
pIC50 (MetRS (T. brucei)): 7.11 | pEC50 (T. brucei): 5.21

O=C(NCc1nc2nc(Cl)ccc2[nH]1)Nc1ccc(Cl)cc1Cl [Compound 1891, 3-({5-chloro-3H-imidazo[4,5-b]pyridin-2-yl}methyl)-1-(2,4-dichlorophenyl)urea]
pIC50 (MetRS (T. brucei)): 5.41 | pEC50 (T. brucei): < 4.70

Clc1ccc(CCNCc2nc3nc(Cl)ccc3[nH]2)c(Cl)c1 [Compound 1892, ({5-chloro-3H-imidazo[4,5-b]pyridin-2-yl}methyl)[2-(2,4-dichlorophenyl)ethyl]amine]
pIC50 (MetRS (T. brucei)): 7.48 | pEC50 (T. brucei): 5.81

CN(CCNCc1cc(Cl)cc(Cl)c1)c1nc2nc(Cl)c(Br)cc2[nH]1 [Compound 1894, 6-bromo-5-chloro-N-(2-{[(3,5-dichlorophenyl)methyl]amino}ethyl)-N-methyl-3H-imidazo[4,5-b]pyridin-2-amine]
pIC50 (MetRS (T. brucei)): 6.75 | pEC50 (T. brucei): 5.54

Clc1cc(Cl)cc(CNCCSc2nc3nc(Cl)ccc3[nH]2)c1 [Compound 1896, [2-({5-chloro-1H-imidazo[4,5-b]pyridin-2-yl}sulfanyl)ethyl][(3,5-dichlorophenyl)methyl]amine]
pIC50 (MetRS (T. brucei)): 5.98 | pEC50 (T. brucei): 5.85

Clc1cc(Cl)cc(CO[C@H]2CCCN(c3nc4nc(Cl)ccc4[nH]3)C2)c1 [Compound 1898]
pIC50 (MetRS (T. brucei)): 6.71 | pEC50 (T. brucei): 5.06

CC(=O)N(Cc1cc(Cl)cc(Cl)c1)[C@H]1CCCN(c2nc3nc(F)ccc3[nH]2)C1 [Compound 1901, (S)—N-(3,5-dichlorobenzyl)-N-(1-(5-fluoro-1H-imidazo[4,5-b]pyridin-2-yl)piperidin-3-yl)acetamide]
pIC50 (MetRS (T. brucei)): 6.16 | pEC50 (T. brucei): 5.29

Clc1cc(Cl)c(Cl)c(CN[C@H]2CCCN(c3nc4nc(Cl)ccc4[nH]3)C2)c1 [Compound 1902, (S)-1-(5-chloro-1H-imidazo[4,5-b]pyridin-2-yl)-N-(2,3,5-trichlorobenzyl)piperidin-3-amine]
pIC50 (MetRS (T. brucei)): 7.74 | pEC50 (T. brucei): 6.45

Clc1cc(Cl)cc(CNC2CCCCN(c3nc4nc(Cl)ccc4[nH]3)C2)c1 (stereo not drawn) [Compound 1903, 1-(5-chloro-1H-imidazo[4,5-b]pyridin-2-yl)-N-(3,5-dichlorobenzyl) azepan-3-amine]
pIC50 (MetRS (T. brucei)): 6.17 | pEC50 (T. brucei): 5.74

Clc1cc(Cl)cc(CO[C@H]2CCCN(c3nc4nc(Cl)c(Br)cc4[nH]3)C2)c1 [Compound 1904, (S)-6-bromo-5-chloro-2-(3-((3,5-dichlorobenzyl)oxy)piperidin-1-yl)-1H-imidazo[4,5-b]pyridine]
pIC50 (MetRS (T. brucei)): < 5.00 | pEC50 (T. brucei): < 4.70

Clc1cc(Cl)c(Cl)c(CN[C@H]2CCCN(c3nc4nc(Cl)c(Br)cc4[nH]3)C2)c1 [Compound 1905, (S)-1-(6-bromo-5-chloro-1H-imidazo[4,5-b]pyridin-2-yl)-N-(2,3,5-trichlorobenzyl)piperidin-3-amine]
pIC50 (MetRS (T. brucei)): 5.37 | pEC50 (T. brucei): < 4.70

OC1N[C@@H](Cc2ccc(Cl)cc2Cl)C(O)N1Cc1nc2ccccc2[nH]1 (stereo partly drawn) [Compound 1906, (5S)-3-((H-benzo[d]imidazol-2-yl)methyl)-5-(2,4-dichlorobenzyl)imidazolidine-2,4-diol]
pIC50 (MetRS (T. brucei)): 5.53 | pEC50 (T. brucei): 5.21

COc1c(Br)cc(Br)cc1CN[C@H]1CCCN(c2nc3nc(Cl)ccc3[nH]2)C1 [Compound 1909, (S)-1-(5-chloro-1H-imidazo[4,5-b]pyridin-2-yl)-N-(3,5-dibromo-2-methoxybenzyl)piperidin-3-amine]
pIC50 (MetRS (T. brucei)): 7.70 | pEC50 (T. brucei): 6.48

Clc1cc(Cl)cc(CNCC2CCN2c2nc3nc(Cl)ccc3[nH]2)c1 (stereo not drawn) [Compound 1915, 1-(1-(5-chloro-1H-imidazo[4,5-b]pyridin-2-yl)azetidin-2-yl)-N-(3,5-dichlorobenzyl)methanamine]
pIC50 (MetRS (T. brucei)): 6.77 | pEC50 (T. brucei): 5.51
